For orientation: IC50 means the concentration that gives 50% inhibition.

This note sets out measurements from US20250304563A1, “ACTIVATORS OF EFFECTOR T CELLS” (Orum Therapeutics, Inc., priority 2022, published 2025).

SMILES strings stand for the structures.

The target in the test is Cbl-b (36-427 aa truncated form, N-terminus Avi-tag) (Homo sapiens (Human), UniProt Q13191). The test can be described thus: Cbl-b binding: TR-FRET displacement of BODIPY-FL probe. As to the method: Compounds were assessed for binding activity to Cbl-b by their ability to compete with and displace a probe comprised of BODIPY-FL fluorophore conjugated to a Cbl-b inhibitor (see Example 54 in WO2020264398). In the assay, a 36-427 aa truncated form of Cbl-b with an N-terminus Avi-tag was incubated 20 mM HEPES pH 7.5, 150 mM NaCl, 0.01% Triton X-100, 0.1% BSA, 0.5 mM TCEP buffer with streptavidin-terbium (Cisbio). After one hour of incubation at room temperature, 1 uM each of fluorescent probe and compound were combined with the reaction mixture. Compounds with Cbl-b binding activity competitively displace the fluorophore tagged inhibitor thereby disrupting the FRET signal from the terbium-BODIPY-FL complex. The reaction mixtures were incubated for one additional hour at room temperature to allow for competition between inhibitor and candidate compounds to occur. The time resolved FRET (TR-FRET) signal was then read at 520/620 […] (excitation/emission) using a Spectramax M5e plate reader (Molecular Devices) to measure probe displacement. Compounds with Cbl-b binding activity had decreased FRET signal owing to disruption of the terbium-BODIPY-FL FRET complex. Standard methods in PRISM were used to calculate the compound IC50 values from the experimental data.
Chain of Cbl-b (36-427 aa truncated form, N-terminus Avi-tag) (Q13191 36-427): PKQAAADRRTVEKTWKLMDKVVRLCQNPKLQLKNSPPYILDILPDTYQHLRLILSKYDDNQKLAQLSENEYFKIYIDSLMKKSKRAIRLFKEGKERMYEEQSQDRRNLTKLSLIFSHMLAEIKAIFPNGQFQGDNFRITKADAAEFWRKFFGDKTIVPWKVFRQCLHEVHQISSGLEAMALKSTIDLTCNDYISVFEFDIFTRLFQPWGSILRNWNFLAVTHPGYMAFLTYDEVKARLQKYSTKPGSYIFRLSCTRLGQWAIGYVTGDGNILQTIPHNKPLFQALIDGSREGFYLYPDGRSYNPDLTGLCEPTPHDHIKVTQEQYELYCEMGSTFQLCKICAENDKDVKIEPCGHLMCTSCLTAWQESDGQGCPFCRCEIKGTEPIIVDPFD
Background: In TR-FRET formats the signal depends on donor and acceptor labels being close together.
`C=CCS(=O)(=O)N1CCN(c2cc(C3(Cc4nncn4C)COC3)cc(N3Cc4c(cc(CN5CCC[C@H](C)C5)cc4C(F)(F)F)C3=O)n2)CC1` [Compound 133, (S)-2-(6-(4-(allylsulfonyl)piperazin-1-yl)-4-(3-((4-methyl-4H-1,2,4-triazol-3-yl)methyl)oxetan-3-yl)pyridin-2-yl)-6-((3-methylpiperidin-1-yl)methyl)-4-(trifluoromethyl)isoindolin-1-one] displayed an IC50 of 5.01 to 20 nM.

For the molecule `C[C@H]1CCCN(Cc2cc3c(c(C(F)(F)F)c2)CN(c2cc(C4(Cc5nncn5C)COC4)cc(N4CCNCC4)n2)C3=O)C1` [Compound 140, (S)-2-(4-(3-((4-methyl-4H-1,2,4-triazol-3-yl)methyl)oxetan-3-yl)-6-(piperazin-1-yl)pyridin-2-yl)-6-((3-methylpiperidin-1-yl)methyl)-4-(trifluoromethyl)isoindolin-1-one; trifluoro acetic acid], the IC50 fell in the range of 5.01 to 20 nM.

The molecule `C[C@H]1CCCN(Cc2cc3c(c(C(F)(F)F)c2)CN(c2cc(C4(Cc5nncn5C)COC4)cc(NCCCC#N)n2)C3=O)C1` [Compound 143, 4-[(4-{3-[(4-methyl-1,2,4-triazol-3-yl)methyl]oxetan-3-yl}-6-(6-{[(3S)-3-methylpiperidin-1-yl]methyl}-1-oxo-4-(trifluoromethyl)-3H-isoindol-2-yl)pyridin-2-yl)amino]butanenitrile; trifluoroacetic acid] gave an IC50 of 1 to 5 nM.

`CCSc1cc(C2(Cc3nncn3C)COC2)cc(N2Cc3c(C#N)cc(CN4CCC[C@H](C)C4)cc3C2=O)n1` [Compound 144, 2-[6-(ethylsulfanyl)-4-{3-[(4-methyl-1,2,4-triazol-3-yl)methyl]oxetan-3-yl}pyridin-2-yl]-6-{[(3S)-3-methylpiperidin-1-yl]methyl}-1-oxo-3H-isoindole-4-carbonitrile; trifluoroacetic acid] came in with an IC50 of 5.01 to 20 nM.

`CCSc1cc(C2(Cc3nncn3C)COC2)cc(N2Cc3c(C(N)=O)cc(CN4CCC[C@H](C)C4)cc3C2=O)n1` [Compound 145, 2-[6-(ethylsulfanyl)-4-{3-[(4-methyl-1,2,4-triazol-3-yl)methyl]oxetan-3-yl}pyridin-2-yl]-6-{[(3S)-3-methylpiperidin-1-yl]methyl}-1-oxo-3H-isoindole-4-carboxamide]: the IC50 lay in the range of 5.01 to 20 nM.

Consider `CCNc1cc(C2(Cc3nncn3C)COC2)cc(N2Cc3cc(CN4CCC[C@H](C)C4)sc3C2=O)n1` [Compound 149, 5-[6-(ethylamino)-4-{3-[(4-methyl-1,2,4-triazol-3-yl)methyl]oxetan-3-yl}pyridin-2-yl]-2-{[(3S)-3-methylpiperidin-1-yl]methyl}-4H-thieno[2,3-c]pyrrol-6-one], for which the IC50 was in the range of 20 to 100 nM.

Turning to `C#CCOCC(c1cc2c(c(C(F)(F)F)c1)CN(c1cccc(C3(c4nncn4C)CC(C)C3)c1)C2=O)N1CCC[C@H](C)C1` (stereo partly drawn) [Compound 151, 6-{1-[(3S)-3-methylpiperidin-1-yl]-2-(prop-2-yn-1-yloxy)ethyl}-2-{3-[(1r,3s)-3-methyl-1-(4-methyl-1,2,4-triazol-3-yl)cyclobutyl]phenyl}-4-(trifluoromethyl)-3H-isoindol-1-one], the IC50 was 100 to 1000 nM.

Consider `Cn1cnnc1CC1(c2cc(NCCC#N)nc(N3Cc4c(cc(CN5CCC(O)(C6CC6)CC5)cc4C(F)(F)F)C3=O)c2)COC1` [Compound 155, 3-[(6-{6-[(4-cyclopropyl-4-hydroxypiperidin-1-yl)methyl]-1-oxo-4-(trifluoromethyl)-3H-isoindol-2-yl}-4-{3-[(4-methyl-1,2,4-triazol-3-yl)methyl]oxetan-3-yl}pyridin-2-yl)amino]propanenitrile], for which the IC50 is 1 to 5 nM.

`C[C@H](Cc1nncn1C)c1cccc(NC(=O)c2ccc(C=O)c(C3CC3)n2)c1` [Compound 156, 6-cyclopropyl-5-formyl-N-{3-[(2R)-1-(4-methyl-1,2,4-triazol-3-yl)propan-2-yl]phenyl}pyridine-2-carboxamide]: the IC50 lay within 20 to 100 nM.

Molecule `Cn1cnnc1CC1(c2cc(NCCC#N)nc(N3Cc4c(cc(C=O)cc4C(F)(F)F)C3=O)c2)COC1` [Compound 157, 3-({6-[6-formyl-1-oxo-4-(trifluoromethyl)-3H-isoindol-2-yl]-4-{3-[(4-methyl-1,2,4-triazol-3-yl)methyl]oxetan-3-yl}pyridin-2-yl}amino)propanenitrile] registered a half-maximal inhibitory concentration (IC50) of 20 to 100 nM.

For `CSc1cc(CN2CCC[C@H](C)C2)cc2c1CN(c1cc(C3(Cc4nncn4C)COC3)cc(NCCN=[N+]=[N-])n1)C2=O` [Compound 158, 2-{6-[(2-azidoethyl)amino]-4-{3-[(4-methyl-1,2,4-triazol-3-yl)methyl]oxetan-3-yl}pyridin-2-yl}-6-{[(3S)-3-methylpiperidin-1-yl]methyl}-4-(methylsulfanyl)-3H-isoindol-1-one; trifluoroacetic acid], the IC50 was 1 to 5 nM.

The molecule `CCSc1cc(C2(Cc3nncn3C)COC2)cc(N2Cc3c(C(C)=O)cc(CN4CCC[C@H](C)C4)cc3C2=O)n1` [Compound 159, 4-acetyl-2-[6-(ethylsulfanyl)-4-{3-[(4-methyl-1,2,4-triazol-3-yl)methyl]oxetan-3-yl}pyridin-2-yl]-6-{[(3S)-3-methylpiperidin-1-yl]methyl}-3H-isoindol-1-one; trifluoroacetic acid] displayed an IC50 of 20 to 100 nM.

On to `Cn1cnnc1CC1(c2cc(NCCC#N)nc(N3Cc4c(cc(CN5CCC6(CC5)CC6CO)cc4C(F)(F)F)C3=O)c2)COC1` (stereo not shown) [Compound 160, 3-{[6-(6-{[1-(hydroxymethyl)-6-azaspiro[2.5]octan-6-yl]methyl}-1-oxo-4-(trifluoromethyl)-3H-isoindol-2-yl)-4-{3-[(4-methyl-1,2,4-triazol-3-yl)methyl]oxetan-3-yl}pyridin-2-yl]amino}propanenitrile], for which the IC50 was 1 to 5 nM.

Molecule `Cn1cnnc1CC1(c2cc(NCCC#N)nc(N3Cc4c(cc(CN5C[C@H]6CCC(O)C[C@H]6C5)cc4C(F)(F)F)C3=O)c2)COC1` (stereo partly drawn) [Compound 161, 3-{[6-(6-{[(3aR,7aS)-5-hydroxy-octahydroisoindol-2-yl]methyl}-1-oxo-4-(trifluoromethyl)-3H-isoindol-2-yl)-4-{3-[(4-methyl-1,2,4-triazol-3-yl)methyl]oxetan-3-yl}pyridin-2-yl]amino}propanenitrile; trifluoroacetic acid] showed a 50% inhibitory concentration (IC50) of 1 to 5 nM.

In turn, `CN1CCOC2(CCN(Cc3cc4c(c(C(F)(F)F)c3)CN(c3cc(C5(Cc6nncn6C)COC5)cc(NCCC#N)n3)C4=O)C2)C1` (stereo not shown) [Compound 163, 3-[(4-{3-[(4-methyl-1,2,4-triazol-3-yl)methyl]oxetan-3-yl}-6-[6-({9-methyl-6-oxa-2,9-diazaspiro[4.5]decan-2-yl}methyl)-1-oxo-4-(trifluoromethyl)-3H-isoindol-2-yl]pyridin-2-yl)amino]propanenitrile] gave an IC50 of 5.01 to 20 nM.

`Cn1cnnc1CC1(c2cc(NCCC#N)nc(N3Cc4c(cc(CN5CC[C@@H](CN6CCOCC6)C5)cc4C(F)(F)F)C3=O)c2)COC1` [Compound 165, 3-[(4-{3-[(4-methyl-1,2,4-triazol-3-yl)methyl]oxetan-3-yl}-6-(6-{[(3R)-3-(morpholin-4-ylmethyl)pyrrolidin-1-yl]methyl}-1-oxo-4-(trifluoromethyl)-3H-isoindol-2-yl)pyridin-2-yl)amino]propanenitrile; trifluoroacetic acid] returned a 50% inhibitory concentration (IC50) of 5.01 to 20 nM.
